According to patent publication US11692227B2, “Method for screening for skin whitening agent by using SDF1 promoter region” (AJOU UNIVERSITY INDUSTRY-ACADEMIC COOPERATION FOUNDATION, priority 2018, dated 2023):

System: SDF1 promoter
Assay: Screening of pigment regulators using SDF1 promoter (pGF1 reporter fibroblast cell line, Luciferase assay)
Type: cell-based
Conditions: fibroblasts infected with SDF1 promoter pGF1 vector virus; 1 ug TPA; 1 ug and 10 ug retinoic acid; 24 hours after treatment
Source text: In order to express the SDF1 promoter gene, the SDF1 promoter gene was inserted into pGF1-vector to construct the SDF1 promoter GFP vector. In order to produce the virus into which the constructed vector was inserted, a virus production system of lentivirus was used. PVSV-G (SystemBiosciences, USA) encoding the required structural protein, the pGF1 vector into which the SDF1 promoter gene was inserted, and pGag-pol were simultaneously co-transfected into HEK-293TN cells by a liposome method. After 6 hours, the medium was replaced with a new medium, cultured for 48 hours, and the medium containing the virus was harvested, and the harvested virus was used for fibroblasts infection. As for the infected fibroblasts, only cells infected by Puromycin were selected for the experiment.
In order to confirm the expression of the prepared SDF1 promoter, Luciferase assay, an experiment that can confirm the level of GFP, was conducted to observe the expression level.
Cells were cultured in 12 well plates in an amount of 1×10^3, and after 24 hours, 1 ug of TPA, 10 ng and 100 ng of EGF, and 1 ug and 10 ug of retinoic acid were treated, respectively. 24 hours after treatment with the drug, the activity of GFP was measured through Luciferase assay.

CCCCCCCCCCCCCC(=O)O[C@@H]1[C@@H](C)[C@@]2(O)[C@@H](C=C(CO)C[C@]3(O)C(=O)C(C)=C[C@@H]23)[C@@H]2C(C)(C)[C@]12OC(C)=O [TPA]
SDF1 promoter activity (activity of GFP measured through Luciferase assay): decreased
